Results taken from patent publication US20230285357A1, “COMPOSITIONS AND METHODS FOR […] CELLS” (The Regents of the University of California, priority 2020, published 2023).

Columns and labels:
[1] = tested on: vascular calcification in Mgp−/− mice; experiment: Late vascular calcification in Mgp−/− mice; assay type: in vivo, mouse
Protocol: It was next examined if SB216763 reversed osteogenesis in vascular calcification by treating Mgp^−/− mice at 4 weeks of age for 2 weeks (FIG. 5, Part F).
Mgp^+/− (B6.129S7-Mgptm1Kry/KbosJ), Col1α1^CreERT2 (B6.Cg-Tg(Col1α1-cre/ERT2)1Crm/J), GSK3β^flox/flox (B6.129(Cg)-Gsk3btm2Jrw/J) and Osx-Gfptg (B6.Cg-Tg(Sp7-tTA,tetO-EGFP/cre)1Amc/J) mice on C57BL/6J background were purchased from the Jackson Laboratory. Genotypes were confirmed by PCR, and experiments were performed with generation F4-F6. Littermates were used as wild type controls. All mice were fed a standard chow diet. The studies were reviewed and approved by the Institutional Review Board and conducted in accordance with the animal care guidelines set by the University of California, Los Angeles (UCLA). The investigation conformed to the National Research Council, Guide for the Care and Use of Laboratory Animals, Eighth Edition (Washington, D.C.: The National Academies Press, 2011).
MicroCT imaging was performed at the Crump Imaging Center at UCLA. All the samples were scanned on a high-resolution, volumetric microCT scanner (CT125). The image data were acquired with the following parameters: 10 μm isotropic voxel resolution; 200 ms exposure time; 2,000 views and 5 frames per view. The microCT-generated DICOM files were used to analyze the samples and to create volume renderings of the regions of interest. The raw data files were viewed using the MicroView 3-D volume viewer and analysis tool (GE Healthcare) and AltaViewer™ Software. Additionally, images of the samples were generated using SCIRun (Scientific Computing and Imaging Institute).

[2] = tested on: osteoblasts; experiment: Osteogenesis assay in osteogenic induction media, von Kossa staining; assay type: cell-based, mouse
Protocol: To assess the functional capacity of SB216763-treated osteoblasts, they were treated with osteogenic induction media in vitro. […] A transplantation experiment was then performed to examine the capacity for bone formation using a well-established bone formation assay in vivo. This assay was adapted and eGFP positive cells were used, which were isolated from SB216763-treated Flk1-eGFP osteoblasts (FIG. 2, Part A).
The cells were then subjected to osteogenic induction media. […] Cells was transplanted into nude mice to test ectopic bone formation.

[3] = Mgp−/− mice at 4 weeks of age treated for 2 weeks

Cn1cc(C2=C(c3ccc(Cl)cc3Cl)C(=O)NC2=O)c2ccccc21 [SB216763]
CD31-positive cells co-expressing VE-cadherin and osterix, FACS [1, 3]: decrease of CD31-positive cells that co-expressed VE-cadherin and osterix | CD31-positive cells expressing VE-cadherin only, FACS [1, 3]: increase of CD31-positive cells that expressed VE-cadherin only | aortic calcification, microCT imaging [1, 3]: reduction of aortic calcification | histology of calcified areas of the aortas [1, 3]: change in morphology in calcified areas of the aortas | mineralization of whole aortic tissues, alizarin red staining [1, 3]: reduction of mineralization | total aortic calcium and mineral deposition [1, 3]: decrease of total aortic calcium and mineral deposition | osteogenic markers in aortic tissue, real-time PCR ([1]; treated Mgp−/− mice compared to non-treated mice): decrease of osteogenic markers | mineralization, von Kossa staining ([2]; SB216763-treated cells after restoring SMAD1 or depletion of β-catenin): clear mineralization | mineralization, von Kossa staining ([2]; SB216763-treated cells in osteogenic induction media): lack of mineralization
